We go through 22 compounds from patent US9206173B2, “Heterocyclic compounds for the treatment of stress-related conditions” (OTSUKA PHARMACEUTICAL CO., LTD., priority 2009, dated 2015).

The target of data set [1] is T1, human GPR10 (Homo sapiens (Human), UniProt P49683). Nature of the data set: Inhibitory activity on binding of [3H]-PrRP to GPR10 (HEK 293 cell membrane fraction). Conditions: [3H]-PrRP 1 nM, human GPR10-expressing HEK 293 cell membrane fraction; Ki from IC50 by Cheng-Prussoff formula. A digest of the protocol: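 Competition with [3H]-PrRP (1 nM final) for membranes from human GPR10-expressing HEK293 cells, 90 min at room temperature in HEPES/EDTA buffer pH 7.4; filtration and scintillation counting.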

Data set [2] concerns the target T1, human GPR10. Nature of the data set: Antagonistic activity on PrRP-induced intracellular calcium mobilization in human GPR10-expressing HEK293 cells. The data set is classed as cell-based. The following applies: PrRP 1 nM-induced intracellular calcium mobilization, Fluo-8. The procedure: Pharmacological Test 2 Antagonistic Activity on GPR10 Using Human GPR10-Expressing HEK293 Cells.
Antagonistic activity of test compounds on PrRP-induced intracellular calcium mobilization was evaluated using GPR10-expressing HEK293 cells.
HEK293 cells expressing human GPR10 were maintained in Dulbecco's Modified Eagles' medium supplemented with 10% fetal bovine serum, 1% penicillin-streptomycin and 20 mM HEPES at 37° C. in a 5% CO2 incubator. GPR10-expressing HEK293 cells were placed in poly-D-lysine coated 96-well culture plates and cultured for 18-24 hr before the test at a density of 3×10^4 cells/well. […] The cells were incubated with test compounds for 15 min at room temperature, and then PrRP (the final concentration, 1 nM) was added into the medium. The changes in intracellular calcium-dependent fluorescence were monitored using a fluorescence imaging plate reader (FDSS3000, Hamamatsu Photonics K.K.). Fluo-8 fluorescence was measured with excitation at 490 nm and emission at 520 nm. The calcium-dependent fluorescence intensity was calculated by subtracting basal intensity (average intensity for 30 sec before agonist stimulation) from peak intensity for 60 sec after PrRP-stimulation, and then IC50 values were determined by nonlinear curve-fitting program, GraphPad Prism 5.
For orientation: Calcium flux is commonly read through the fluorescence of an indicator in the cells.

Structures can show the parent of a compound that is named as a salt.

T1 sequence (P49683 whole entry): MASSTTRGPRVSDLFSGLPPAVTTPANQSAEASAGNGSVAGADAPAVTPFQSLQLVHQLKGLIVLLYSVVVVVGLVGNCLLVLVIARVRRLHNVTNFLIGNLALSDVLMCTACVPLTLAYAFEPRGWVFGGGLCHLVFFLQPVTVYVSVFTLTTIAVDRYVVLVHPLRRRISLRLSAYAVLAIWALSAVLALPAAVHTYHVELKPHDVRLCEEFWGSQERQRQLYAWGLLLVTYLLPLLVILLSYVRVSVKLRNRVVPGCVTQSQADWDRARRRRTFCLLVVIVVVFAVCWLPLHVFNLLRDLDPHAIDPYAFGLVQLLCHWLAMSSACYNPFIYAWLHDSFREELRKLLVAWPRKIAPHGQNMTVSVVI

For orientation: melting point means the temperature, or range, at which the solid turns liquid. For `CC[C@@H](Nc1nc2c(c(=O)n1OC)CN(C(=O)c1ccc(Cl)cc1)CC2)c1ccc(Cl)cc1.Cl`, the melting point fell in the range of 127 to 129.5 °C.

`CN(C)n1c(NCc2ccc(C(F)(F)F)c(F)c2)nc2c(c1=O)CN(C(=O)c1ccc(Cl)cc1)CC2.Cl`: the melting point lay within 122 to 124 °C.

In general, Ki refers to the equilibrium dissociation constant of an inhibitor or competing ligand from its target. A low value points to higher affinity. One may read the IC50 as the concentration that gives 50% inhibition. On to `C[C@H](Nc1nc2c(c(=O)n1N(C)C)CN(C(=O)c1ccc(Cl)cc1)CC2)c1ccc(C(F)(F)F)cc1.Cl` [Example 6, 6-(4-chlorobenzoyl)-3-dimethylamino-2-(S)-{1-[4-(trifluoromethyl)phenyl]ethylamino}-5,6,7,8-tetrahydropyrido[4,3-d]pyrimidin-4-(3H)-one hydrochloride], for which the melting point was 116 to 118 °C. Besides, at human GPR10 [1], the affinity, expressed as Ki, was 17 nM. Further, at human GPR10 [2], the IC50 is 187 nM.

Regarding `C[C@H](Nc1nc2c(c(=O)n1N(C)C)CN(C(=O)c1ccc(Cl)cc1)CC2)c1ccc(Cl)cc1.Cl` [Example 8, 6-(4-chlorobenzoyl)-2-(S)-[1-(4-chlorophenyl)ethylamino]-3-dimethylamino-5,6,7,8-tetrahydropyrido[4,3-d]pyrimidin-4-(3H)-one hydrochloride], the melting point was in the range of 121 to 123 °C. The compound also came in with a Ki at human GPR10 [1] of 25 nM. Moreover, the IC50 at human GPR10 [2] came out at 253 nM.

As to `CC#CCn1c(N[C@@H](C)c2ccc(C(F)(F)F)cc2)nc2c(c1=O)CN(C(=O)c1ccc(Cl)cc1)CC2` [Example 2409, 3-(2-butynyl)-6-(4-chlorobenzoyl)-2-[(S)-1-(4-trifluoromethylphenyl)ethylamino]-5,6,7,8-tetrahydro-3H-pyrido[4,3-d]pyrimidin-4-one hydrochloride], at human GPR10 [1], the affinity corresponds to a Ki of 16 nM. Also, the IC50 at human GPR10 [2] came to 2440 nM.

The compound `CC#CCn1c(N[C@@H](C)c2ccc(C(F)(F)F)cc2)nc2c(c1=O)CN(C(=O)c1ccc(-c3cnco3)cc1)CC2` [Example 2410, 3-(2-butynyl)-6-(4-oxazol-5-ylbenzoyl)-2-[(S)-1-(4-trifluoromethylphenyl)ethylamino]-5,6,7,8-tetrahydro-3H-pyrido[4,3-d]pyrimidin-4-one hydrochloride] gave a Ki at human GPR10 [1] of 10 nM. Also, the IC50 on human GPR10 [2] came to 665 nM.

In turn, `CC#CCn1c(N[C@@H](C)c2ccc(C(F)(F)F)cc2)nc2c(c1=O)CN(C(=O)c1cc3ccccn3n1)CC2` [Example 2411, 3-(2-butynyl)-6-(pyrazolo[1,5-a]pyridine-2-carbonyl)-2-[(S)-1-(4-trifluoromethylphenyl)ethylamino]-5,6,7,8-tetrahydro-3H-pyrido[4,3-d]pyrimidin-4-one hydrochloride] yielded a Ki at human GPR10 [1] of 20 nM. The IC50 on human GPR10 [2] came to 776 nM.

`CC#CCn1c(N[C@@H](C)c2ccc(C(F)(F)F)cc2)nc2c(c1=O)CN(C(=O)c1ccc3c(c1)CCC(=O)N3)CC2` [Example 2412, 3-(2-butynyl)-6-(2-oxo-1,2,3,4-tetrahydro-quinoline-6-carbonyl)-2-[(S)-1-(4-trifluoromethylphenyl)ethylamino]-5,6,7,8-tetrahydro-3H-pyrido[4,3-d]pyrimidin-4-one hydrochloride]: at human GPR10 [1], the Ki is 8 nM. Moreover, on human GPR10 [2], the IC50 is 259 nM.

On human GPR10 [1], `CC#CCn1c(N[C@@H](C)c2ccc(C(F)(F)F)cc2)nc2c(c1=O)CN(C(=O)c1ccc3cccnc3c1)CC2` [Example 2417, 3-(2-butynyl)-6-(quinoline-7-carbonyl)-2-[(S)-1-(4-trifluoromethylphenyl)ethylamino]-5,6,7,8-tetrahydro-3H-pyrido[4,3-d]pyrimidin-4-one dihydrochloride] showed a Ki of 17 nM. Also, on human GPR10 [2], the IC50 was 780 nM.

As for `COc1ccc(C(=O)N2CCc3nc(N[C@@H](C)c4ccc(C(F)(F)F)cc4)n(OC)c(=O)c3C2)c(OC)n1` [Example 2419, 6-(2,6-dimethoxypyridine-3-carbonyl)-3-methoxy-2-[(S)-1-(4-trifluoromethylphenyl)ethylamino]-5,6,7,8-tetrahydro-3H-pyrido[4,3-d]pyrimidin-4-one], the Ki on human GPR10 [1] stood at 7 nM. Further, the IC50 on human GPR10 [2] came to 228 nM.

For the compound `CCC(Nc1nc2c(c(=O)n1OC)CN(C(=O)c1ccc(Cl)cc1)CC2)c1ccc(Cl)cc1.Cl` (stereo not drawn) [Example 2421, 6-(4-chlorobenzoyl)-2-[1-(4-chlorophenyl)propylamino]-3-methoxy-5,6,7,8-tetrahydro-3H-pyrido[4,3-d]pyrimidin-4-one hydrochloride], the melting point was 118.1 to 123.7 °C. The Ki on human GPR10 [1] stood at 44 nM. The IC50 on human GPR10 [2] is 1570 nM.

As to `COn1c(N[C@@H](C)c2ccc(Cl)cc2)nc2c(c1=O)CN(C(=O)COc1ccc(Cl)cc1)CC2` [Example 2430, 6-[2-(4-chlorophenoxy)acetyl]-2-[(S)-1-(4-chlorophenyl)ethylamino]-3-methoxy-5,6,7,8-tetrahydro-3H-pyrido[4,3-d]pyrimidin-4-one], on human GPR10 [1], the Ki was 15 nM. In addition, on human GPR10 [2], the IC50 worked out at 1180 nM.

On human GPR10 [1], `C[C@H](Nc1nc2c(c(=O)n1N(C)C)CN(C(=O)COc1ccc(Cl)cc1)CC2)c1ccc(Cl)cc1` [Example 2431, 6-[2-(4-chlorophenoxy)acetyl]-2-[(S)-1-(4-chlorophenyl)ethylamino]-3-dimethylamino-5,6,7,8-tetrahydro-3H-pyrido[4,3-d]pyrimidin-4-one] had an inhibition constant (Ki) of 207 nM. In addition, the IC50 at human GPR10 [2] was 3600 nM.

The compound `C[C@H](Nc1nc2c(c(=O)n1N1CCOCC1)CN(C(=O)c1ccc(C#N)cc1)CC2)c1ccc(C(F)(F)F)cc1` [Example 2432, 4-{3-morpholin-4-yl-4-oxo-2-[(S)-1-(4-trifluoromethylphenyl)ethylamino]-3,5,7,8-tetrahydro-4H-pyrido[4,3-d]pyrimidine-6-carbonyl}benzonitrile hydrochloride] showed a Ki on human GPR10 [1] of 36 nM. Further, the IC50 on human GPR10 [2] was 238 nM.

`C#CCCn1c(N[C@@H](C)c2ccc(C(F)(F)F)cc2)nc2c(c1=O)CN(C(=O)c1ccc(C#N)cc1)CC2` [Example 2433, 4-{3-(3-butynyl)-4-oxo-2-[(S)-1-(4-trifluoromethylphenyl)ethylamino]-3,5,7,8-tetrahydro-4H-pyrido[4,3-d]pyrimidine-6-carbonyl}benzonitrile]: the Ki at human GPR10 [1] turned out to be 5 nM. The IC50 at human GPR10 [2] was 62 nM.

`C#CCCn1c(N[C@@H](C)c2ccc(C(F)(F)F)cc2)nc2c(c1=O)CN(C(=O)c1ccc(C#N)cc1F)CC2` [Example 2435, 4-{3-(3-butynyl)-4-oxo-2-[(S)-1-(4-trifluoromethylphenyl)ethylamino]-3,5,7,8-tetrahydro-4H-pyrido[4,3-d]pyrimidine-6-carbonyl}-3-fluorobenzonitrile]: the Ki at human GPR10 [1] was found to be 2 nM. Further, the IC50 on human GPR10 [2] was determined as 68 nM.

For the compound `COn1c(NC(c2ccc(Cl)cc2)C(C)C)nc2c(c1=O)CN(C(=O)c1ccc(Cl)cc1)CC2` (stereo not drawn) [Example 2441, 6-(4-chlorobenzoyl)-2-[1-(4-chlorophenyl)-2-methylpropylamino]-3-methoxy-5,6,7,8-tetrahydro-3H-pyrido[4,3-d]pyrimidin-4-one], the affinity on human GPR10 [1] corresponds to a Ki of 37 nM. In addition, at human GPR10 [2], the IC50 turned out to be 4490 nM.

At human GPR10 [1], `CC#CCn1c(N[C@@H](C)c2ccc(C(F)(F)F)cc2)nc2c(c1=O)CN(C(=O)c1cnc3ccccc3c1)CC2` [Example 2446, 3-(2-butynyl)-6-(quinoline-3-carbonyl)-2-[(S)-1-(4-trifluoromethylphenyl)ethylamino]-5,6,7,8-tetrahydro-3H-pyrido[4,3-d]pyrimidin-4-one] had a Ki of 28 nM. For the same compound, the IC50 at human GPR10 [2] stood at 2790 nM.

On to `CC#CCn1c(N[C@@H](C)c2ccc(C(F)(F)F)cc2)nc2c(c1=O)CN(C(=O)c1ccc3ccccc3n1)CC2` [Example 2449, 3-(2-butynyl)-6-(quinoline-2-carbonyl)-2-[(S)-1-(4-trifluoromethylphenyl)ethylamino]-5,6,7,8-tetrahydro-3H-pyrido[4,3-d]pyrimidin-4-one], for which, at human GPR10 [1], the Ki is 24 nM. At human GPR10 [2], the IC50 stood at 3350 nM.

In turn, `COn1c(N[C@@H](C)c2ccc(C(F)(F)F)cc2)nc2c(c1=O)CN(C(=O)c1ccc(C)c(C)c1)CC2` [Example 2452, 6-(3,4-dimethylbenzoyl)-3-methoxy-2-[(S)-1-(4-trifluoromethylphenyl)ethylamino]-5,6,7,8-tetrahydro-3H-pyrido[4,3-d]pyrimidin-4-one] yielded a Ki on human GPR10 [1] of 4 nM. The IC50 at human GPR10 [2] amounted to 1030 nM.

Regarding `C[C@H](Nc1nc2c(c(=O)n1N1CCOCC1)CN(C(=O)c1ccc(C#N)cc1F)CC2)c1ccc(C(F)(F)F)cc1` [Example 2463, 3-fluoro-4-{3-morpholin-4-yl-4-oxo-2-[(S)-1-(4-trifluoromethylphenyl)ethylamino]-3,5,7,8-tetrahydro-4H-pyrido[4,3-d]pyrimidine-6-carbonyl}benzonitrile hydrochloride], on human GPR10 [1], the affinity, expressed as Ki, was 3 nM. Moreover, the IC50 on human GPR10 [2] worked out at 187 nM.

In the case of `C[C@H](Nc1nc2c(c(=O)n1N(C)C)CN(C(=O)c1c(F)cc(F)cc1F)CC2)c1ccc(C(F)(F)F)cc1` [Example 2484, 3-dimethylamino-6-(2,4,6-trifluorobenzoyl)-2-[(S)-1-(4-trifluoromethylphenyl)ethylamino]-5,6,7,8-tetrahydro-3H-pyrido[4,3-d]pyrimidin-4-one hydrochloride], the affinity at human GPR10 [1], expressed as Ki, was 6 nM. Also, the IC50 at human GPR10 [2] is 216 nM.
